{"source": "patent US20230286979A1", "about": "“SALT OF DIHYDROPYRIDO[2,3-D]PYRIMIDINONE DERIVATIVE, PREPARATION METHOD THEREFOR, AND USE THEREOF” (NANJING CHIA TAI TIANQING PHARMACEUTICAL CO., LTD., priority 2020, published 2023)", "test_system": "AKT kinase", "experiment": "AKT kinase activity inhibition, summary statement of Test Example 1", "format": "biochemical", "details": "as demonstrated by Test Example 1", "description": "g) The plate was sealed, the reaction solution was mixed until uniform and reacted at the room temperature for 1 h, and fluorescence signals were detected by using an ENVISION (Perkinelmer) instrument (320 nm stimulation, 665 nm, 615 nm emission). An inhibition rate in each well was calculated from all active wells and background signal wells, a mean value of repetitive wells was calculated, and the half inhibitory activity (IC50) of each compound to be tested was fitted by using the professional drawing analysis software PRISM 6.0."}
{"smiles": "CC(C)NC[C@@H](C(=O)N1CCN(c2ncnc3c2[C@H](C)CC(=O)N3)[C@H]2C[C@H]21)c1ccc(Cl)cc1", "note": "(single isomer, unassigned) [Isomer 2 of Example 1]", "values": [{"measurement": "inhibiting effect on the AKT kinase activity", "value": "has an inhibiting effect"}]}
